Assay results from patent US8883782B2, “Spiro-tetracyclic ring compounds as beta-secretase modulators and methods of use” (Amgen Inc., priority 2010, dated 2014).
Where two headings read alike, the source gives them in different places.

Columns and labels:
[1] = target: Beta Secretase enzyme (BACE) (Homo sapiens, UniProt P56817); assay: In vitro enzymatic BACE FRET (fluorescence resonance energy transfer) assay; format: biochemical
Summary of the method: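 Fluorescence read after Tris quench to neutral pH. Reaction: 50 nM fluorophore/quencher peptide substrate, 1 h, in 0.05 M acetate pH 4.2, 10% DMSO final, 100 uM genapol.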

[2] = system: Aβ40 in conditioned medium of cells stably expressing Amyloid Precursor Protein (APP); assay: In vitro BACE cell-based assay (Aβ40 in conditioned medium, sandwich ELISA)
Summary of the method: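 Secreted Aβ40 is captured with pAb40 and detected with biotinylated 6E10, read by europium time-resolved fluorescence. IC50 comes from percent inhibition versus concentration.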

[3] = system: Abeta 40 in cerebrospinal fluid (CSF) and brain; assay: In vivo inhibition of beta-secretase (Abeta 40 reduction in CSF and brain); settings: rat, after 4 hrs; for inhibition in vivo at 10 mg/kg: Abeta 40, 10 mg/kg (10 mpk); for inhibition in vivo at 3 mg/kg: Abeta 40, 3 mpk
Source text: In Vivo Inhibition of Beta-Secretase
Several animal models, including mouse, rat, dog, and monkey, may be used to screen for inhibition of beta-secretase activity in vivo following administration of a test compound sample. Animals used in this invention can be wild type, transgenic, or gene knockout animals. […] A separate group of animals receive 2% hydroxypropyl methylcellulose, 1% Tween80 alone, containing no test compound, and serve as a vehicle-control group. At the end of the test period, animals are sacrificed and brain tissues, plasma or cerebrospinal fluid are collected. […] Homogenates are centrifuged at 355,000 g, 4° C. for 30 minutes. CSF or brain supernatants are then analyzed for the presence of A-beta peptide by specific sandwich ELISA assays based on ECL (Electrochemiluminescence) technology. For example, rat Abeta40 is measured using biotinylated-4G8 (Signet) as a capture antibody and Fab40 (an in-house antibody specific to the C-terminal of Abeta40) as a detection antibody.
Actual vehicles used: Oral: 2% HPMC, 1% Tween80, pH 2.2

[4] = average IC50, enzyme assay, read-out: BACE 1 FRET assay
[5] = Homo sapiens, HEK293, average IC50, read-out: HEK cell assay
[6] = CSF, read-out: CSF A-beta reduction % at 10 mg/kg
[7] = brain, read-out: Brain A-beta reduction % at 10 mg/kg
[8] = Homo sapiens, HEK293, average IC50, HEK cells, read-out: HEK cell assay
[9] = CSF, read-out: CSF A-beta reduction % at 3 mpk
[10] = brain, read-out: Brain A-beta reduction % at 3 mpk

Sequence of Beta Secretase enzyme (BACE) (P56817 46-501, species assumed): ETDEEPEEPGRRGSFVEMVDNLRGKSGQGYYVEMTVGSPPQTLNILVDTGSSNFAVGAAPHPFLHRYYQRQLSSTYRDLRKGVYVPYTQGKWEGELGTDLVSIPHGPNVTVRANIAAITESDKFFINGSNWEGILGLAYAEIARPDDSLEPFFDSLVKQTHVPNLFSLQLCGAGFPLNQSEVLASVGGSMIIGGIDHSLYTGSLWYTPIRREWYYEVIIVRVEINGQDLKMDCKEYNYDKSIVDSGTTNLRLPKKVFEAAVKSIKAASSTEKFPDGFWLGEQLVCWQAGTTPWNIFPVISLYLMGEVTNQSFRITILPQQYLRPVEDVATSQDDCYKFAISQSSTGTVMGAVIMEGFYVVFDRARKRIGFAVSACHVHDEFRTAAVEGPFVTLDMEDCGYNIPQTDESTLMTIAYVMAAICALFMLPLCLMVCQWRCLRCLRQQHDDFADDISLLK

Structure (SMILES) | IC50 [1, 4] [µM] | IC50 [2, 5] [µM] | inhibition in vivo at 10 mg/kg [3, 6] [%] | inhibition in vivo at 10 mg/kg [3, 7] [%] | IC50 [2, 8] [µM] | other results
NC1=N[C@@]2(CO1)c1cc(-c3cccnc3F)ccc1Oc1c(F)cc(-c3ncccn3)cc12 [Example 128, (S)-4′-fluoro-7′-(2-fluoropyridin-3-yl)-2′-(pyrimidin-2-yl)-5H-spiro[oxazole-4,9′-xanthen]-2-amine] | 0.0011 | 0.0082 | 75 | 57 |  | 
N#Cc1cccc(-c2ccc3c(c2)[C@@]2(COC(N)=N2)c2cc(N4CCC(F)(F)C4)ncc2O3)c1 [Example 134, (S)-3-(2′-amino-3-(3,3-difluoropyrolidin-1-yl)-5′H-spiro[chromeno[2,3-c]pyridine-5,4′-oxazole]-7-yl)benzonitrile] | 0.001 |  | 61 | 45 | 0.012 | 
NC1=N[C@@]2(CO1)c1cc(-c3cnccn3)ccc1Oc1c(F)cc(C3=CCOCC3)cc12 [Example 452, (S)-2′-(3,6-dihydro-2H-pyran-4-yl)-4′-fluoro-7′-(pyrazin-2-yl)-5H-spiro[oxazole-4,9′-xanthen]-2-amine] | 0.002 |  | 56 | 35 | 0.0115 | 
CC1(C)C=C(c2ccc3c(c2)[C@]2(COC(N)=N2)c2cc(-c4cncnc4)c(F)cc2O3)CCO1 [Example 508, (R)-7′-(6,6-dimethyl-3,6-dihydro-2H-pyran-4-yl)-3′-fluoro-2′-(pyrimidin-5-yl)-5H-spiro[oxazole-4,9′-xanthen]-2-amine] | 0.0037 |  | 49 | 25 | 0.0144 | 
NC1=N[C@@]2(CS1)c1cc(-c3cccnc3F)ccc1Oc1cnc(C3=CCCOC3)cc12 [Example 928, (S)-3-(5,6-dihydro-2H-pyran-3-yl)-7-(2-fluoropyridin-3-yl)-5′H-spiro[chromeno[2,3-c]pyridine-5,4′-thiazol]-2′-amine] | 0.0004 |  | 82 | 71 | 0.008 | 
NC1=N[C@@]2(CS1)c1cc(-c3cccnc3F)ccc1Oc1cnc(N3CCOCC3)cc12 [Example 999, (S)-7-(2-fluoropyridin-3-yl)-3-morpholino-5′H-spiro[chromeno[2,3-c]pyridine-5,4′-thiazol]-2′-amine] | 0.0005 | 0.014 |  |  |  | CSF A-beta reduction % at 5 mpk ([3]; CSF, Abeta 40, 5 mpk): 58% at 5 mpk; Brain A-beta reduction % at 5 mpk ([3]; brain, Abeta 40, 5 mpk): 40% at 5 mpk
CC(C)(F)COc1cc(F)c2c(c1)[C@]1(CSC(N)=N1)c1cc(-c3cccnc3F)ccc1O2 [Example 1067, (S)-4′-fluoro-2′-(2-fluoro-2-methylpropoxy)-7′-(2-fluoropyridin-3-yl)-5H-spiro[thiazole-4,9′-xanthen]-2-amine] | 0.0003 | 0.015 | 69 | 55 |  | 
NC1=N[C@@]2(CO1)c1cc(-c3cncc(F)c3)ccc1Oc1c2cc(N2CCC(F)(F)CC2)nc1F [Example 927, (S)-3-(4,4-difluoropiperidin-1-yl)-1-fluoro-7-(5-fluoropyridin-3-yl)-5′-H-spiro[chromeno[2,3-c]pyridine-5,4′-oxazol]-2′-amine] | 0.0003 |  | 70 | 65 | 0.01 | 
NC1=N[C@@]2(CS1)c1cc(-c3cccnc3F)ccc1Oc1c2cc(-c2ccnc(F)c2)nc1F (single isomer, unassigned) [Example 996] | 0.0002 | 0.013 | 55 | 43 |  | 
NC1=N[C@@]2(CO1)c1cc(-c3cncc(F)c3)ccc1Oc1c2cc(N2CCOCC2)nc1F [Example 893, (5S)-1-fluoro-7-(5-fluoro-3-pyridinyl)-3-(4-morpholinyl)spiro[chromeno[2,3-c]pyridine-5,4′-[1,3]oxazol]-2′-amine] | 0.0003 |  | 76 | 70 | 0.007 | 
NC1=N[C@@]2(CO1)c1cc(-c3c(F)ccnc3F)ccc1Oc1cnc(C3=CCOCC3)cc12 [Example 89, (5S)-7-(2,4-difluoro-3-pyridinyl)-3-(3,6-dihydro-2H-pyran-4-yl)spiro[chromeno[2,3-c]pyridine-5,4′-[1,3]oxazol]-2′-amine] |  |  | 80 | 69 |  | IC50 ([1]; BACE 1 FRET assay (uM)): 0.0007 µM; IC50 ([2]; Homo sapiens, HEK293, read-out: HEK cell assay (uM), average IC50, HEK cell assay): 0.0047 µM
CC#Cc1cncc(-c2ccc3c(c2)[C@@]2(COC(N)=N2)c2cc(-c4cnn(C)c4)cc(F)c2O3)c1 [Example 947, (S)-4′-fluoro-2′-(1-methyl-1H-pyrazol-4-yl)-7′-(5-(prop-1-ynyl)pyridin-3-yl)-5H-spiro[oxazole-4,9′-xanthen]-2-amine] | 0.0004 |  |  |  | 0.004 | inhibition in vivo at 3 mg/kg [3, 9]: 22%; inhibition in vivo at 3 mg/kg [3, 10]: 25%
NC1=N[C@@]2(CS1)c1cc(-c3cccnc3F)ccc1Oc1c(F)cc(C3=CCCOC3)cc12 [Example 802, (S)-2′-(5,6-dihydro-2H-pyran-3-yl)-4′-fluoro-7′-(2-fluoropyridin-3-yl)-5H-spiro[thiazole-4,9′-xanthen]-2-amine] | 0.0002 | 0.012 | 69 | 57 |  | 
NC1=N[C@@]2(CO1)c1cc(-c3cccnc3F)c(F)cc1Oc1c(F)cc(C3=CCOCC3)cc12 (single isomer, unassigned) [Example 867] |  |  | 56 | 39 |  | IC50 ([1]; BACE 1 FRET assay (uM)): 0.0003 µM; IC50 ([2]; Homo sapiens, HEK293, read-out: HEK cell assay (uM), average IC50, HEK cells): 0.005 µM
NC1=N[C@@]2(CS1)c1cc(-c3cccnc3F)ccc1Oc1ncc(C3=CCCOC3)cc12 [Example 672, (5S)-3-(5,6-dihydro-2H-pyran-3-yl)-7-(2-fluoro-3-pyridinyl)spiro[chromeno[2,3-b]pyridine-5,4′-[1,3]thiazol]-2′-amine] | 0.0007 |  | 64 | 47 | 0.01 | 
CC#Cc1cncc(-c2ccc3c(c2)[C@@]2(COC(N)=N2)c2cc(C#CC(C)(C)O)cc(F)c2O3)c1 [Example 951, (S)-4-(2-amino-5′-fluoro-2′-(5-(prop-1-ynyl)pyridin-3-yl)-5H-spiro[oxazole-4,9′-xanthene]-7′-yl)-2-methylbut-3-yn-2-ol] | 0.0006 |  |  |  | 0.004 | inhibition in vivo at 3 mg/kg [3, 9]: 17%; inhibition in vivo at 3 mg/kg [3, 10]: 13%
CC1(C#Cc2cnc3c(c2)[C@]2(COC(N)=N2)c2cc(-c4cccc(C#N)c4)ccc2O3)COC1 [Example 127, (S)-3-(2′-amino-3-((3-methyloxetan-3-yl)ethynyl)-5′H-spiro[chromeno[2,3-b]pyridine-5,4′-oxazole]-7-yl)benzonitrile] | 0.0011 | 0.005 | 61 | 45 |  | 
NC1=N[C@@]2(CO1)c1cc(-c3cccnc3)ccc1Oc1c2cc(N2CCC(F)(F)C2)nc1F [Example 916, (S)-3-(3,3-difluoropyrrolidin-1-yl)-1-fluoro-7-(pyridin-3-yl)-5′-H-spiro[chromeno[2,3-c]pyridine-5,4′-oxazol]-2′-amine] | 0.0004 |  | 61 | 44 | 0.005 | 
NC1=N[C@@]2(CS1)c1cc(-c3cccnc3F)ccc1Oc1cnc(-c3ccnc(F)c3)cc12 [Example 1000, (S)-7-(2-fluoropyridin-3-yl)-3-(2-fluoropyridin-4-yl)-5′H-spiro[chromeno[2,3-c]pyridine-5,4′-thiazol]-2′-amine] |  | 0.023 |  |  |  | CSF A-beta reduction % at 30 mpk ([3]; CSF, Abeta 40, 30 mpk): 63% at 30 mpk; Brain A-beta reduction % at 30 mpk ([3]; brain, Abeta 40, 30 mpk): 60% at 30 mpk
CC(C)(C)C#Cc1cnc2c(c1)[C@]1(COC(N)=N1)c1cc(-c3cncnc3)c(F)cc1O2 [Example 339, (S)-3-(3,3-dimethylbut-1-yn-1-yl)-8-fluoro-7-(pyrimidin-5-yl)-5′H-spiro[chromeno[2,3-b]pyridine-5,4′-oxazol]-2′-amine] |  |  | 56 | 29 |  | IC50 ([2]; average IC50, read-out: HEK cell assay): 0.0144 µM
NC1=N[C@@]2(CO1)c1cc(-c3cccnc3F)ccc1Oc1c2cc(C2=CCCOC2)nc1F [Example 688, (5S)-3-(5,6-dihydro-2H-pyran-3-yl)-1-fluoro-7-(2-fluoro-3-pyridinyl)spiro[chromeno[2,3-c]pyridine-5,4′-[1,3]oxazol]-2′-amine] |  |  |  |  | 0.005 | inhibition in vivo at 3 mg/kg [3, 9]: 74%; inhibition in vivo at 3 mg/kg [3, 10]: 75%
